Laboratory results: DBAASP
Values after ≈ are worked out from the molar mass of the structure shown. Values joined by “and” are separate entries in the source; they are usually repeats but may differ in a detail not shown here. Equal values may be shown once. Each block holds one compound with its values, some of them ahead of it.

Tests used:
Experiment in all cases: ≥ marks a high value that may be exact or a test limit, other limits are often not marked, values filed in µg/mL are converted to µM
[1] = tested on: Staphylococcus aureus ATCC 43300
Escherichia coli = tested on: Escherichia coli
Salmonella sp. = tested on: Salmonella sp.
Yersinia enterocolitica = tested on: Yersinia enterocolitica
[2] = tested on: Salmonella enterica subsp. enterica serovar Enteritidis
[3] = tested on: Escherichia coli ATCC 25922
[4] = tested on: Staphylococcus aureus ATCC 29213
Escherichia coli BL21AI = tested on: Escherichia coli BL21AI
[5] = tested on: Micrococcus luteus ATCC 10240
Candida albicans MDM8 = tested on: Candida albicans MDM8
Escherichia coli SBS 363 = tested on: Escherichia coli SBS 363
Micrococcus luteus A270 = tested on: Micrococcus luteus A270
[6] = tested on: Bacillus subtilis ATCC 9372
[7] = tested on: Bacillus anthracis Sterne 34F2
[8] = tested on: Burkholderia thailandensis
Pseudomonas aeruginosa = tested on: Pseudomonas aeruginosa
Staphylococcus aureus = tested on: Staphylococcus aureus
Bacillus subtilis 168 = tested on: Bacillus subtilis 168
Escherichia coli B = tested on: Escherichia coli B
[9] = tested on: Mycobacterium tuberculosis H37Rv
[10] = tested on: Staphylococcus aureus SAP 0017
[11] = tested on: Candida albicans ATCC 2002
Shigella dysenteriae = tested on: Shigella dysenteriae
Bacillus cereus = tested on: Bacillus cereus
[12] = tested on: Staphylococcus aureus ATCC 2592
[13] = tested on: Streptococcus sanguinis NY101
[14] = tested on: Streptococcus mutans UA159
[15] = tested on: Streptococcus mitis ATCC 903
[16] = tested on: Pseudomonas aeruginosa PAK
[17] = tested on: Streptococcus gordonii Challis DL1

SMILES: CC[C@H](C)[C@H](NC(=O)[C@H](CCCCN)NC(=O)[C@H](C)NC(=O)CNC(=O)[C@@H](NC(=O)[C@H](CCCCN)NC(=O)[C@@H](NC(=O)[C@H](CCCCN)NC(=O)[C@H](C)NC(=O)CNC(=O)[C@@H](NC(=O)[C@H](CCCCN)NC(=O)[C@@H](NC(=O)[C@H](CCCCN)NC(=O)[C@H](C)NC(=O)CNC(=O)[C@@H](NC(=O)[C@@H](N)CCCCN)[C@@H](C)CC)[C@@H](C)CC)[C@@H](C)CC)[C@@H](C)CC)[C@@H](C)CC)C(=O)O [KIGAKIKIGAKIKIGAKI]
- MIC [6]: 31 µM (≈ 57.4 µg/mL)
- MIC [7]: ≥ 100 µM
- MIC [8]: ≥ 50 µM

SMILES: CC[C@H](C)[C@H](NC(=O)[C@H](CC(C)C)NC(=O)[C@H](Cc1cnc[nH]1)NC(=O)CNC(=O)[C@@H]1CCCN1C(=O)[C@@H](NC(=O)[C@H](CCCCN)NC(=O)[C@H](CO)NC(=O)[C@H](Cc1c[nH]c2ccccc12)NC(=O)[C@H](CCSC)NC(=O)CN)[C@@H](C)CC)C(=O)N[C@@H](CCCN=C(N)N)C(N)=O [GMWSKIPGHLIR]
- MIC (Pseudomonas aeruginosa): > 100 µM
- MIC (Staphylococcus aureus): > 100 µM
- MIC (Bacillus subtilis 168): ≥ 100 µM
- MIC (Escherichia coli B): 25 µM (≈ 34.8 µg/mL)

SMILES: CC[C@H](C)[C@H](NC(=O)[C@H](Cc1ccc(O)cc1)NC(=O)CNC(=O)[C@@H](NC(=O)[C@@H](NC(=O)CNC(=O)[C@@H](NC(=O)[C@H](C)NC(=O)[C@H](C)NC(=O)CNC(=O)CNC(=O)[C@@H](N)CC(C)C)[C@@H](C)O)C(C)C)[C@@H](C)CC)C(=O)N[C@@H](CO)C(=O)N[C@@H](CC(N)=O)C(=O)N[C@@H](CCC(N)=O)C(=O)N[C@H](C(=O)N[C@@H](CS)C(=O)N1CCC[C@H]1C(=O)N[C@H](C(=O)N[C@H](C(=O)N[C@@H](C)C(=O)N[C@@H](CS)C(=O)N[C@H](C(=O)N[C@@H](CCCN=C(N)N)C(=O)N[C@@H](C)C(=O)N[C@@H](CS)C(=O)O)[C@@H](C)O)[C@@H](C)O)[C@@H](C)O)[C@@H](C)O [LGGAATGVIGYISNQTCPTTACTRAC]
- MIC [6]: ≥ 100 µM
- MIC [7]: ≥ 100 µM
- MIC [8]: ≥ 50 µM

SMILES: CC[C@H](C)[C@H](NC(=O)CNC(=O)[C@H](CO)NC(=O)[C@H](CC(C)C)NC(=O)[C@@H](NC(=O)[C@H](CCCN=C(N)N)NC(=O)CNC(=O)[C@@H](NC(=O)[C@H](CC(C)C)NC(=O)[C@@H]1CCCN1C(=O)[C@H](CC(C)C)NC(=O)[C@@H](N)Cc1ccccc1)[C@@H](C)CC)C(C)C)C(=O)N[C@@H](CC(C)C)C(=O)O [FLPLIGRVLSGIL]
- MIC [6]: ≥ 100 µM
- MIC [7]: ≥ 100 µM
- MIC [8]: ≥ 50 µM

SMILES: CC[C@H](C)[C@H](NC(=O)[C@H](Cc1ccccc1)NC(=O)[C@H](Cc1cnc[nH]1)NC(=O)[C@H](CCCCN)NC(=O)[C@@H](NC(=O)[C@@H](N)Cc1ccccc1)[C@@H](C)CC)C(=O)N[C@@H](Cc1cnc[nH]1)C(=O)N[C@@H](CCCN=C(N)N)C(=O)N[C@@H](Cc1ccccc1)C(=O)N[C@@H](CO)C(=O)N[C@@H](C)C(=O)N[C@H](C(=O)N[C@@H](CCCN=C(N)N)C(=O)N[C@@H](Cc1c[nH]c2ccccc12)C(=O)N[C@@H](CCCN=C(N)N)C(=O)N[C@@H](CCCN=C(N)N)C(=O)N[C@@H](CC(C)C)C(=O)N[C@@H](CC(C)C)C(=O)N[C@@H](CCCCN)C(=O)N[C@@H](CCCCN)C(=O)N[C@@H](CC(C)C)C(=O)N[C@@H](Cc1cnc[nH]1)C(=O)N[C@@H](Cc1cnc[nH]1)C(=O)N[C@@H](CC(C)C)C(=O)N[C@@H](CC(C)C)C(=O)N[C@@H](Cc1cnc[nH]1)C(N)=O)[C@@H](C)O [FIKHFIHRFSATRWRRLLKKLHHLLH]
- MIC (Staphylococcus aureus): 4.72 µM (≈ 16 µg/mL)
- MIC [13]: 9.43 µM (≈ 32 µg/mL)
- MIC [14]: 4.72 µM (≈ 16 µg/mL)
- MIC [15]: 9.43 µM (≈ 32 µg/mL)
- MIC [16]: 9.43 µM (≈ 32 µg/mL)
- MIC [17]: 9.43 µM (≈ 32 µg/mL)

More lines, now with the values ahead:

- MIC [1]: > 36 µM
- MIC (Escherichia coli): > 36 µM
- MIC (Salmonella sp.): ≥ 36 µM
- MIC (Yersinia enterocolitica): ≥ 36 µM
- MIC [2]: ≥ 36 µM
- MIC [3]: > 36 µM
- MIC [4]: > 36 µM
SMILES: CC[C@H](C)[C@H](NC(=O)[C@H](CCC(N)=O)NC(=O)[C@@H](N)CCCN=C(N)N)C(=O)N[C@@H](CCCN=C(N)N)C(=O)N[C@@H](CCCN=C(N)N)C(=O)N[C@@H](Cc1c[nH]c2ccccc12)C(=O)N[C@@H](Cc1c[nH]c2ccccc12)C(=O)N[C@@H](CCSC)C(=O)N[C@@H](CCCN=C(N)N)C(N)=O [RQIRRWWMR]

- MIC (Escherichia coli BL21AI): ≥ 61.8 µM
- MIC [5]: ≥ 61.8 µM
SMILES: CC[C@H](C)[C@H](NC(=O)[C@H](Cc1ccc(O)cc1)NC(=O)[C@@H](NC(=O)[C@@H]1CCCN1C(=O)[C@H](CCCN=C(N)N)NC(=O)[C@H](CC(N)=O)NC(=O)[C@H](CC(N)=O)NC(=O)CN)C(C)C)C(=O)N1CCC[C@H]1C(=O)N[C@@H](CCC(N)=O)C(=O)N1CCC[C@H]1C(=O)N[C@@H](CCCN=C(N)N)C(=O)N1CCC[C@H]1C(=O)N1CCC[C@H]1C(=O)N[C@@H](Cc1cnc[nH]1)C(=O)N1CCC[C@H]1C(=O)N[C@@H](C)C(=O)N[C@@H](CC(C)C)C(N)=O [GNNRPVYIPQPRPPHPAL]

- MIC (Candida albicans MDM8): 0.78 µM (≈ 1.01 µg/mL)
- MIC (Escherichia coli SBS 363): 1.56 µM (≈ 2.01 µg/mL)
- MIC (Micrococcus luteus A270): 0.78 µM (≈ 1.01 µg/mL)
SMILES: CC[C@H](C)[C@H](NC(=O)[C@H](CC(C)C)NC(=O)[C@H](CO)NC(=O)[C@H](CC(C)C)NC(=O)[C@H](Cc1ccccc1)NC(=O)[C@@H](N)CO)C(=O)N[C@@H](CCCN=C(N)N)C(=O)N[C@@H](CCCCN)C(=O)N[C@@H](CC(C)C)C(=O)N[C@H](C(=O)N[C@H](C(N)=O)[C@@H](C)O)[C@@H](C)CC [SFLSLIRKLIT]

- MIC [1]: > 40.4 µM
- MIC (Escherichia coli): > 40.4 µM
- MIC (Salmonella sp.): ≥ 40.4 µM
- MIC (Yersinia enterocolitica): ≥ 40.4 µM
- MIC [2]: ≥ 40.4 µM
- MIC [3]: > 40.4 µM
- MIC [4]: > 40.4 µM
SMILES: CC[C@H](C)[C@H](NC(=O)[C@H](CCC(N)=O)NC(=O)[C@@H](N)CCCN=C(N)N)C(=O)N[C@@H](CCCN=C(N)N)C(=O)N[C@@H](CCCN=C(N)N)C(=O)N[C@H](C(=O)N[C@H](C(=O)N[C@@H](CCC(N)=O)C(=O)N[C@@H](CCCN=C(N)N)C(N)=O)[C@@H](C)CC)[C@@H](C)CC [RQIRRIIQR]

- MIC [9]: ≥ 60.7 µM
SMILES: CC[C@H](C)[C@H](NC(=O)[C@H](CC(N)=O)NC(=O)[C@H](C)NC(=O)[C@H](CCCN=C(N)N)NC(=O)[C@H](Cc1ccccc1)NC(=O)[C@H](CCC(=O)O)NC(=O)[C@H](Cc1ccccc1)NC(=O)[C@H](Cc1ccc(O)cc1)NC(=O)[C@H](Cc1ccccc1)NC(=O)CNC(=O)[C@@H]1CCCN1C(=O)[C@@H]1CCCN1C(=O)[C@@H](N)CCCN=C(N)N)C(=O)N[C@H](C(=O)N1CCC[C@H]1C(=O)N[C@@H](Cc1ccc(O)cc1)C(=O)N[C@@H](CC(C)C)C(=O)NCC(=O)N[C@@H](CCCN=C(N)N)C(=O)N[C@@H](CCCN=C(N)N)C(=O)O)[C@@H](C)CC [RPPGFYFEFRANIIPYLGRR]

- MIC [10]: 1 µM and 2 µM
SMILES: CC[C@H](C)[C@H](NC(=O)[C@H](C)NC(=O)[C@H](CCCN=C(N)N)NC(=O)[C@H](CC(C)C)NC(=O)[C@@H](NC(=O)[C@H](CCCCN)NC(=O)[C@H](CC(C)C)NC(=O)[C@H](CC(C)C)NC(=O)[C@H](Cc1c[nH]c2ccccc12)NC(=O)[C@H](CCCCN)NC(=O)[C@@H](NC(=O)[C@@H](N)C(C)C)[C@@H](C)CC)[C@@H](C)CC)C(N)=O [VIKWLLKILRAI]

- MIC [11]: 3.08 µM (≈ 6.24 µg/mL)
- MIC (Shigella dysenteriae): 3.08 µM (≈ 6.24 µg/mL)
- MIC (Pseudomonas aeruginosa): 6.17 µM (≈ 12.5 µg/mL)
- MIC (Bacillus cereus): 6.17 µM (≈ 12.5 µg/mL)
- MIC [3]: 24.7 µM (≈ 50 µg/mL)
- MIC [12]: 6.17 µM (≈ 12.5 µg/mL)
SMILES: CSCC[C@@H]1NC(=O)[C@H](CC(C)C)NC(=O)[C@H](C)NC(=O)[C@H](CCCN=C(N)N)NC(=O)[C@H](CC(N)=O)NC(=O)[C@@H](NC(=O)[C@H](CCCCN)NC(=O)[C@H](CC(N)=O)NC(=O)[C@H](CCCN=C(N)N)NC(=O)[C@@H]2CCCN2C(=O)[C@H](CCSC)NC(=O)[C@H](CO)NC(=O)[C@H](CC(C)C)NC(=O)[C@H](C)NC(=O)[C@@H](N)CC(N)=O)CSSC[C@@H](C(=O)N[C@@H](Cc2ccccc2)C(=O)NCC(=O)O)NC1=O [NALSMPRNKCNRALMCFG]
